# According to patent publication US20030235543A1, “Topical administration of pharmacologically active bases for skin lightening” (priority 2002, published 2003):
# Read-outs that look alike come from different tables or passages of the source.
# Tests used:
# [1] = cited from earlier work; for Alkalinity / base strength in words: aqueous solution
# [2] = In vitro keratolysis study: release of protein from ground callus (BioRad protein assay); conditions: incubation 40 minutes (Table 3)
# [3] = cited from earlier work
# [4] = In vitro keratolysis study: release of protein from ground callus (BioRad protein assay); conditions: for Protein release compared with glycolic acid, other bases / water control: 10 minutes (Example 7); for Protein release compared with glycolic acid / water control: all time points (Example 6)
# Procedure: An in vitro keratolysis study was performed to compare the capability of glycolic acid and a base for removing protein from stratum corneum. Adult foot callus was collected, grounded and the portion between 50-80 mesh was used. Glycolic acid and sodium hydroxide solutions (concentration=0.05 M) were prepared in distilled water. Ten mg of ground callus powder was place in a test tube. Four ml of a test chemical was added to the callus and the test tube was placed in a shaker and incubated in a water bath at 37° C. for a predetermined incubation time. The incubation time periods were 10 min., 40 min, 2 hours, 4 hours, 6 hours and 24 hours. Six samples of each base were tested a total of six times each at each of the aforementioned incubation time periods.
# At the end of each incubation period, the test tube was removed from the shaker and the test tube was centrifuged. The solution was removed and filtered, and the protein in the solution was then determined using a BioRad® protein assay kit.
# [5] = 0.05 M solutions, incubation time 10 minutes (Table 2, Example 7)
# [6] = 0.05 M solution, 37° C., incubation 10 min (Table 1)
# [7] = 0.05 M solution, 37° C., incubation 40 min (Table 1)
# [8] = 0.05 M solution, 37° C., incubation 2 hours (Table 1)
# [9] = 0.05 M solution, 37° C., incubation 4 hours (Table 1)
# [10] = 0.05 M solution, 37° C., incubation 6 hours (Table 1)
# [11] = 0.05 M solution, 37° C., incubation 24 hours (Table 1)
smiles,measurement,setting,value
O=C([O-])CC(O)(CC(=O)[O-])C(=O)[O-].[K+].[K+].[K+] [Potassium citrate],pH of Aqueous Solution (concentration),[1]; concentration not given,˜8.5
CN(C)C [Trimethylamine],Alkalinity / base strength in words,[1],Strong base
"O.O.O.O.O.O.O.O=P([O-])([O-])O.[Na+].[Na+] [Sodium phosphate, dibasic, heptahydrate]",pH of Aqueous Solution (concentration),[1]; concentration not given,˜9.5
"O=P([O-])([O-])[O-].[Na+].[Na+].[Na+] [Sodium phosphate, tribasic]",Amount of Protein Released,[2]; 0.005% solution,0.048 mg/4 ml
same,Amount of Protein Released,[2]; 0.01% solution,0.050 mg/4 ml
C1CCNCC1 [Piperidine],Amount of Protein Released,[2]; 0.005% solution,0.066 mg/4 ml
same,Amount of Protein Released,[2]; 0.01% solution,0.071 mg/4 ml
same,Alkalinity / base strength in words,[1],Strong base
[O]=[Ca] [Calcium oxide],Solubility in water,[3],"Soluble in water, Form Ca(OH)2"
O=B[O-].[Na+] [Sodium metaborate],Alkalinity / base strength in words,[1],Strongly alkaline
C[N+](C)(C)CC(=O)O [Betaine],Amount of Protein Released,[4]; [5],0.144 mg/4 ml
"O.O.O.O.O.O.O.O.O.O.O.O.O=P([O-])([O-])O.[Na+].[Na+] [Sodium phosphate, dibasic, dodecahydrate]",pH of Aqueous Solution (concentration),[1]; concentration not given,˜9.5
N [Ammonium hydroxide],pH of Aqueous Solution (concentration),[1]; 0.001 N,10.27
same,pH of Aqueous Solution (concentration),[1]; 1 N,11.27
O=C([O-])[O-].[K+].[K+] [Potassium carbonate],Amount of Protein Released,[2]; 0.005% solution,0.068 mg/4 ml
same,Amount of Protein Released,[2]; 0.01% solution,0.073 mg/4 ml
[O]=[Mg] [Magnesium oxide],pH of Aqueous Solution (concentration),[1]; saturated solution in water,10.3 (saturated aqueous solution)
NCCc1ccccc1 [Phenethylamine],Alkalinity / base strength in words,[1],Strong base
CCC(N)CO (centres unmarked) [2-amino-1-butanol],Amount of Protein Released,[4]; [5],0.174 mg/4 ml
"O.O.O.O.O.O.O.O.O.O.O.O.O=P([O-])([O-])[O-].[Na+].[Na+].[Na+] [Sodium phosphate, tribasic dodecahydrate]",pH of Aqueous Solution (concentration),[1]; 0.1%,11.5
same,pH of Aqueous Solution (concentration),[1]; 0.5%,11.7
same,pH of Aqueous Solution (concentration),[1]; 1% (1.0%),11.9
O=C([O-])[O-].[Na+].[Na+] [Sodium carbonate anhydrous],pH of Aqueous Solution (concentration),[1]; concentration not given,˜11.6
CC(C)(N)CO [2-amino-2-methyl-1-propanol],pH of Aqueous Solution (concentration),[1]; 0.1 m,11.3 (0.1 m)
"CC(N)(CO)CO [2-amino-2-methyl-1,3-propanediol]",pH of Aqueous Solution (concentration),[1]; 0.1 m,10.8 (0.1 m)
NCCN [Ethylenediamine],Amount of Protein Released,[2]; 0.005% solution,0.059 mg/4 ml
same,Amount of Protein Released,[2]; 0.01% solution,0.080 mg/4 ml
same,Alkalinity / base strength in words,[1],Strong base
"O=P([O-])([O-])O.[K+].[K+] [Potassium phosphate, dibasic]",Alkalinity / base strength in words,[1],Aqueous solution is slightly alkaline
"O=P([O-])([O-])O.[Na+].[Na+] [Sodium phosphate, dibasic]",pH of Aqueous Solution (concentration),[1]; concentration not given,˜9.5
N[C@@H](Cc1c[nH]c2ccccc12)C(=O)O [L-tryptophan],Amount of Protein Released,[4]; [5],0.170 mg/4 ml
"[Na+].[OH-] [NaOH, Sodium hydroxide]",Amount of Protein Released,[2]; 0.005% solution,0.059 mg/4 ml
same,Amount of Protein Released,[2]; 0.01% solution,0.074 mg/4 ml
same,"Protein released at 6 hours and 24 hours compared with 10 minutes, 40 minutes, 2 hours and 4 hours",[4]; 0.05 M,significantly higher
same,Amount of Protein Released,[4]; [6],0.419 mg/4 ml
same,Amount of Protein Released,[4]; [7],0.739 mg/4 ml
same,Amount of Protein Released,[4]; [8],0.899 mg/4 ml
same,Amount of Protein Released,[4]; [9],1.003 mg/4 ml
same,Amount of Protein Released,[4]; [10],4.853 mg/4 ml
same,Amount of Protein Released,[4]; [11],5.148 mg/4 ml
same,Amount of Protein Released,[4]; [5],0.544 mg/4 ml
same,"Protein release compared with glycolic acid, other bases / water control",[4]; 0.05 M,released more protein
same,Protein release compared with glycolic acid / water control,[4]; 0.05 M,released more protein
same,pH of Aqueous Solution (concentration),[1]; 0.05%,12
same,pH of Aqueous Solution (concentration),[1]; 0.5%,13
same,pH of Aqueous Solution (concentration),[1]; 5%,14
"O.O.O=P([O-])([O-])O.[Na+].[Na+] [Sodium phosphate, dibasic, dihydrate]",pH of Aqueous Solution (concentration),[1]; concentration not given,˜9.5
"N.N.O=P(O)(O)O [Ammonium phosphate, dibasic]",pH of Aqueous Solution (concentration),[1]; concentration not given,˜8
NC1CCCCC1 [Cyclohexylamine],Alkalinity / base strength in words,[1],Strong base
"CC(=O)[O-].[Na+] [Sodium acetate, anhydrous]",pH of Aqueous Solution (concentration),[1]; 0.1 N,˜8.9 (0.1 N)
"O=C(O)CO [Glycolic Acid, reference compound]",Amount of Protein Released,[4]; [6],0.093 mg/4 ml
same,Amount of Protein Released,[4]; [7],0.175 mg/4 ml
same,Amount of Protein Released,[4]; [8],0.126 mg/4 ml
same,Amount of Protein Released,[4]; [9],0.219 mg/4 ml
same,Amount of Protein Released,[4]; [10],0.089 mg/4 ml
same,Amount of Protein Released,[4]; [11],0.173 mg/4 ml
same,Amount of Protein Released,[4]; [5],0.187 mg/4 ml
same,"Protein release compared with glycolic acid, other bases / water control",[4]; 0.05 M,did not show significant differences in comparison with water
same,Protein release compared with glycolic acid / water control,[4]; 0.05 M,did not show statistical differences in comparison with water
"O=P([O-])([O-])O.[Na+].[Na+] [Sodium phosphate, dibasic, anhydrous]",pH of Aqueous Solution (concentration),[1]; 1% (1.0%),9.1 (1%)
C1CCNC1 [Pyrrolidine],Amount of Protein Released,[2]; 0.005% solution,0.060 mg/4 ml
same,Amount of Protein Released,[2]; 0.01% solution,0.066 mg/4 ml
same,Alkalinity / base strength in words,[1],Strong base
CC(=O)[O-].[K+] [Potassium acetate],Amount of Protein Released,[2]; 0.005% solution,0.060 mg/4 ml
same,Amount of Protein Released,[2]; 0.01% solution,0.064 mg/4 ml
OCCNCCO [Diethanolamine],Amount of Protein Released,[4]; [5],0.144 mg/4 ml
same,pH of Aqueous Solution (concentration),[1]; 0.1 N,11.0 (0.1 N)
N=C(N)NCCC[C@H](N)C(=O)O [Arginine],Amount of Protein Released,[4]; [5],0.153 mg/4 ml
